Source: ChEMBL document CHEMBL1201862, “PubChem BioAssay data set” (2004)
Where “and” joins values, the source holds several entries; their conditions need not be identical. Equal values may be shown once.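 Values below derive from 48-hour exposures of cells grown in 96-well plates, with endpoints linearly interpolated between the two concentrations bracketing the appropriate inhibition level. Here, GI50 denotes the concentration required for 50% inhibition of growth.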 Calls of active or inactive are those of the source. Cut-off read from the data, not from the text of the source: active = GI50 up to about 1.1 µM and inactive = higher.

Tests used:
Experiment in all cases: growth of human tumour cells (NCI), 48 h
RPMI-8226 = system: RPMI-8226
UACC-257 = system: UACC-257
SR = system: SR
NCI/ADR-RES = system: NCI/ADR-RES
SW-620 = system: SW-620
ACHN = system: ACHN
NCI-H522 = system: NCI-H522
RXF 393 = system: RXF 393
SNB-75 = system: SNB-75
UO-31 = system: UO-31
NCI-H23 = system: NCI-H23
Malme-3M = system: Malme-3M
IGROV-1 = system: IGROV-1
786-0 = system: 786-0
HOP-92 = system: HOP-92
SK-MEL-28 = system: SK-MEL-28
KM12 = system: KM12
SF-539 = system: SF-539
HT-29 = system: HT-29
CAKI-1 = system: CAKI-1

Structure (SMILES)	GI50 (RPMI-8226)	GI50 (UACC-257)	GI50 (SR)	GI50 (NCI/ADR-RES)	GI50 (SW-620)	GI50 (ACHN)	GI50 (NCI-H522)	GI50 (RXF 393)	GI50 (SNB-75)	GI50 (UO-31)	GI50 (NCI-H23)	GI50 (Malme-3M)	GI50 (IGROV-1)	GI50 (786-0)	GI50 (HOP-92)	GI50 (SK-MEL-28)	GI50 (KM12)	GI50 (SF-539)	GI50 (HT-29)	GI50 (CAKI-1)
COc1ccc(-n2c(N)c(C#N)[nH]c2=O)cc1	> 10 µM (inactive)	> 10 µM (inactive)	> 10 µM (inactive)	> 10 µM (inactive)	> 10 µM (inactive)	> 10 µM (inactive)	> 10 µM (inactive)	> 10 µM (inactive)	> 10 µM (inactive)	> 10 µM (inactive)	> 10 µM (inactive)	> 10 µM (inactive)	> 10 µM (inactive)	> 10 µM (inactive)	> 10 µM (inactive)	> 10 µM (inactive)	> 10 µM (inactive)	> 10 µM (inactive)	> 10 µM (inactive)	
CCOC(=O)C(SCCO)C(C(=O)OCC)n1ccc(N)nc1=O (stereo not given)	> 100 µM (inactive)	> 100 µM (inactive)	> 100 µM (inactive)	> 100 µM (inactive)	> 100 µM (inactive)	> 100 µM (inactive)	> 100 µM (inactive)		> 100 µM (inactive)	> 100 µM (inactive)	> 100 µM (inactive)	> 100 µM (inactive)	> 100 µM (inactive)	> 100 µM (inactive)	> 100 µM (inactive)	> 100 µM (inactive)	> 100 µM (inactive)	> 100 µM (inactive)	> 100 µM (inactive)	> 100 µM (inactive)
CC(=O)O[C@H]1CC2C(C3CC[C@H](C(C)CCC(N)=O)[C@]31C)[C@H](OC(C)=O)C[C@@H]1CC3(CC[C@]21C)OOC1(CCC(C)CC1)OO3 (stereo not given in full)	1.61 µM (inactive) and 1.5 µM (inactive)	5.37 µM (inactive) and 4.6 µM (inactive)	867 nM (active) and 1.47 µM (inactive)	2.55 µM (inactive) and 1.65 µM (inactive)	3.02 µM (inactive) and 2.11 µM (inactive)	1.8 µM (inactive)	1.4 µM (inactive) and 1.71 µM (inactive)	1.95 µM (inactive) and 2.69 µM (inactive)		1.56 µM (inactive)	1.74 µM (inactive) and 2.23 µM (inactive)	2.12 µM (inactive) and 2.53 µM (inactive)		1.86 µM (inactive) and 1.77 µM (inactive)	2.79 µM (inactive) and 1.65 µM (inactive)		1.98 µM (inactive) and 1.83 µM (inactive)	1.9 µM (inactive) and 2.7 µM (inactive)	2.51 µM (inactive) and 1.54 µM (inactive)	2.29 µM (inactive) and 1.71 µM (inactive)
CCN(CC)C(=O)N1CN(c2ccccc2)C2(CCN(CCCC3(c4ccc(F)cc4)OCCO3)CC2)C1=O	12.9 µM (inactive)	12.4 µM (inactive)	11.6 µM (inactive)	23.6 µM (inactive)	18 µM (inactive)	> 10 µM (inactive)	13.7 µM (inactive)	14.7 µM (inactive)	19.7 µM (inactive)	18.4 µM (inactive)	16.1 µM (inactive)	19.1 µM (inactive)		18.6 µM (inactive)		13.8 µM (inactive)	16.5 µM (inactive)	16.6 µM (inactive)		> 100 µM (inactive)
COc1ccc(/C=C2\NC(=S)N(CN3CCCCC3)C2=O)cc1	27.1 µM (inactive)		38.1 µM (inactive)	26.9 µM (inactive)	29.3 µM (inactive)	33.9 µM (inactive)	30.7 µM (inactive)		21 µM (inactive)	37.1 µM (inactive)	77.1 µM (inactive)	30.3 µM (inactive)	44.2 µM (inactive)	36.6 µM (inactive)	76 µM (inactive)	> 100 µM (inactive)	73.1 µM (inactive)		18.3 µM (inactive)	
OCCSCC(O)Cn1cnc2c(O)nc(Nc3ccccc3)nc21 (stereo not given)	> 100 µM (inactive)	> 100 µM (inactive)	> 100 µM (inactive)	> 100 µM (inactive)	> 100 µM (inactive)	> 100 µM (inactive)	> 100 µM (inactive)		> 100 µM (inactive)		> 100 µM (inactive)	> 100 µM (inactive)	> 100 µM (inactive)	> 100 µM (inactive)	> 100 µM (inactive)	> 100 µM (inactive)	> 100 µM (inactive)	> 100 µM (inactive)	> 100 µM (inactive)	> 100 µM (inactive)
CCNc1cc2c(cc1O)CC[C@@H]1[C@@H]2CC[C@]2(C)[C@@H](O)CC[C@@H]12	2.31 µM (inactive)	11.8 µM (inactive)	1.31 µM (inactive)	1.04 µM (active)	2.82 µM (inactive)	8.83 µM (inactive)	2.04 µM (inactive)	3.53 µM (inactive)	0.272 µM (active)	6.75 µM (inactive)	12.9 µM (inactive)	3.75 µM (inactive)	15.5 µM (inactive)	9.91 µM (inactive)	10.3 µM (inactive)	4.59 µM (inactive)	9.04 µM (inactive)		15.8 µM (inactive)	13.5 µM (inactive)
